Assay results taken from patent US20030220307A1, “Remedial agent for osteoporosis” (priority 2000, published 2003).

What was measured:
[1] = system: ovariectomized (OVX) rats; test: Test in osteoporosis rat model (femur bone mineral density and blood Ca level); assay type: in vivo; conditions: oral; for OVX-induced decrease in femur bone mineral density: every day for 8 weeks, vs OVX group, p<0.05, level remained as high as in the sham group; for blood calcium-increasing effect: in amounts where they suppressed the decrease in bone mineral density, 8 weeks, blood drawn 24 hours after last administration
Description: The compounds of the present invention were evaluated for their effects on bone mineral density and blood calcium (Ca) level in osteoporosis rat model. The following compounds were tested: 1α,3β-dihydroxy-20(S)-(3-ethyl-3-hydroxypentyl)-9,10-secopregna-5,7,10(19),16-tetraene from Example 11 (hereinafter referred to as “Compound l”) and 1α,3β-dihydroxy-20(S)-(5-ethyl-5-hydroxy-3-heptynyl)-9,10-secopregna-5,7,10(19),16-tetraene from Example 6 (hereinafter referred to as “Compound 2”).
Nine-month-old W-I female rats (Imamichi Institute for Animal Reproduction) were ovariectomized to remove both ovaries. From the following day, Compound 1 or Compound 2 was orally administered every day for 8 weeks. Compound 1 was given in an amount of 0.5 μg/kg, 1 μg/kg or 2 μg/kg per day in two divided doses, while Compound 2 was given in an amount of 0.125 μg/kg, 0.25 μg/kg or 0.5 μg/kg per day in two divided doses. Twenty-four hours after the last administration, blood was drawn from each rat under ether anesthesia. The rats were then euthanized and their femurs were isolated.
The femur bone mineral density was measured using a dual X-ray bone mineral densitometer (DCS-600EX, ALOKA). The blood calcium (Ca) level was measured with a HITACHI automatic analyzer (Model 7170, Hitachi). For comparison purposes, both groups of sham operation (sham) and ovariectomy (OVX; in which rats were ovariectomized only, not followed by administration of test compounds) were similarly assayed for their blood calcium (Ca) level and bone mineral density by isolating their femurs.
Statistical processing was carried out using a software package of Statistic Analysis System (SAS). A comparison between sham operation (sham) and ovariectomy (OVX) groups was made by an unpaired t-test, while a comparison between OVX and drug treatment groups was made by Dunnett's multiple test. A P-value less than 5% was defined as a significant difference.

[2] = system: ovariectomized (OVX) rats; assay type: in vivo, rat; conditions: 0.04 μg/kg per dose, subcutaneous, 5 times a week for 6 weeks; third lumbar vertebra
Description: Seven- to nine-week-old W-I female rats (Imamichi Institute for Animal Reproduction) were ovariectomized to remove both ovaries. From the following day, 1α,25-dihydroxyvitamin D3 was subcutaneously administered 5 times a week for 6 weeks in an amount of 0.01 to 0.04 μg/kg per dose. After the last administration, 24-hour urine was sampled from each rat and blood was drawn under ether anesthesia. The rats were then euthanized and their lumbar vertebrae were isolated. The lumbar bone mineral density was measured at the third lumbar vertebra site using a dual X-ray bone mineral densitometer (DCS-600, ALOKA). The blood and urinary calcium levels and the urinary creatinine level were measured with a HITACHI automatic analyzer (Model 7170, Hitachi). Statistical processing was carried out using a software package of Statistic Analysis System (SAS). A comparison between sham operation (sham) and ovariectomy (OVX) groups was made by an unpaired t-test, while a comparison between OVX and drug treatment groups or between sham and drug treatment groups was made by Dunnett's multiple test. A P-value less than 5% was defined as a significant difference.

Row | SMILES | OVX-induced decrease in femur bone mineral density ([1]; 1 μg/kg per day in two divided doses) | OVX-induced decrease in femur bone mineral density ([1]; 2 μg/kg per day in two divided doses) | blood calcium-increasing effect [1] | OVX-induced decrease in lumbar bone mineral density [2] | OVX-induced decrease in femur bone mineral density ([1]; 0.125 μg/kg per day in two divided doses) | OVX-induced decrease in femur bone mineral density ([1]; 0.5 μg/kg per day in two divided doses)
1 | C=C1/C(=C\C=C2/CCC[C@]3(C)C([C@@H](C)CCC(O)(CC)CC)=CCC23)C[C@@H](O)C[C@@H]1O (stereo partly drawn) [Compound 1, 1α,3β-dihydroxy-20(S)-(3-ethyl-3-hydroxypentyl)-9,10-secopregna-5,7,10(19),16-tetraene] | significantly suppressed | significantly suppressed | not observed | – | – | –
2 | C=C1/C(=C\C=C2/CCC[C@]3(C)[C@@H]([C@H](C)CCCC(C)(C)O)CC[C@@H]23)C[C@@H](O)C[C@@H]1O [1α,25-dihydroxyvitamin D3] | – | – | – | significantly suppressed | – | –
3 | C=C1/C(=C\C=C2/CCC[C@]3(C)C([C@@H](C)CCC#CC(O)(CC)CC)=CCC23)C[C@@H](O)C[C@@H]1O (stereo partly drawn) [Compound 2, 1α,3β-dihydroxy-20(S)-(5-ethyl-5-hydroxy-3-heptynyl)-9,10-secopregna-5,7,10(19),16-tetraene] | – | – | not observed | – | significantly suppressed | significantly suppressed
